Data set [1] in a line: HPLC quantification of quercetin, rosmarinic acid and carnosic acid in BIOSAS lipid products. The settings on record: for amount dispersed in oil: rosemary BIOSAS dispersion. Format: physicochemical. From the text: Carnosic acid and rosmarinic acid were identified and quantified in the case of BIOSAS rosemary samples following the procedures described by […]. Garcia-Risco, T. Fornari, G. Reglero, Isolation of carsonic acid from rosemary extracts using semi-preparative supercritical fluid chromatography, J. Chromatogr. A. 1286 (2013) 208-215. doi:10.1016/j.chroma.2013.02.044 using a HPLC Prominence-i LC-2030C 3D Plus (Shimadzu) equipped with a RP-C18 (250 × 4.6 mm; 3 μm) chromatography column. The mobile phase consisted of 0.1 % of phosphoric acid in water (solvent A) and acetonitrile (solvent B) applying the following gradient: 0-8 min, 77 % A, 8-25 min, 25 % A, 25-40 min 25 % A and the 40-45 min 77 % A. Initial conditions were gained in 5 min. The flow rate was constant at 0.7 ml/min. Injection volume was 20 μl and the detection was accomplished using a diode array detection system, storing the signal at a wavelength of 230, 280 and 350 nm. In the case of quercetin BIOSAS dispersion, HPLC analysis was carried out as previously described by Wei et al.. A Prominence-i LC-2030C 3D Plus (Shimadzu) equipped with a quaternary solvent delivery system, an autosampler and DAD detector and RP-C18 (250 × 4.6 mm; 3 μm) was used. The column temperature was set at 25 °C. The mobile phase consists of acetonitrile (A) and 0.026% aqueous H3PO4 (v/v), applying the following gradient elution: at 0-20 min, 20%-25% A, 20-30 min, 25%-34% A, 30-50 min, 34%-50% A, 50-60 min, 50%-60% A and 60-80 min, 60% A. After 5 min, the initial conditions were achieved. The flow rate was 0.7 ml/min and was kept constant during analysis. Injection volume was 20 μl and detection was accomplished at 254, 280 and 370 nm.

Another data set deals with mice. The settings on record: intravenous administration; cited from earlier work.

Molecules are shown by their SMILES.

For the compound `CC(C)c1cc2c(c(O)c1O)[C@@]1(C(=O)O)CCCC(C)(C)[C@@H]1CC2` [carnosic acid, Carnosic acid], the “amount dispersed in oil” value in data set [1] (argan oil) was 4.90 mg/g; in data set [1] (flaxseed oil) it was 6.39 mg/g.
Take `O=c1c(O)c(-c2ccc(O)c(O)c2)oc2cc(O)cc(O)c12` [quercetin, 2-(3,4-Dihydroxyphenyl)-3,5,7-trihydroxy-4H-1-benzopyran-4-one,3,3',4',5,6-Pentahydroxyflavone - Quercetin]: the “concentration of quercetin in the flaxseed oil” value in data set [1] (HPLC analysis, BIOSAS 20 MPa, 313.15 K) came out at 1.55 ± 0.05 % mass. Besides, the “amount dispersed by BIOSAS process” value in data set [1] (in high molecular weight triacylglycerols (flaxseed oil), 313.15 K) was above 15 mg/g.
As for `O=C(/C=C/c1ccc(O)c(O)c1)O[C@H](Cc1ccc(O)c(O)c1)C(=O)O` [rosmarinic acid], the “amount dispersed in oil” value was around 0.40 mg/g in data set [1] (argan oil) and 0.51 mg/g in data set [1] (flaxseed oil). For the same compound, the LD50 in the data set on mice is 561 mg/kg.

The LD50 is the dose expected to kill half of the subjects tested.

The values above are taken from EP3895695A1, “SUPERCRITICAL CARBON DIOXIDE-BASED METHODOLOGY TO FORMULATE BIOACTIVE PREPARATIONS” (Universidad Autónoma de Madrid, priority 2020, dated 2021).
